Drawing on ChEMBL document CHEMBL1135977, “Comparison of 3D structures and AT(1) binding properties of pyrazolidine-3,5-diones and tetrahydropyridazine-3,6-diones with parent antihypertensive drug irbesartan” (J Med Chem, 2002), this text covers IC50 and Ki for four compounds.

Experiment [1] is described as follows: Inhibition of AII(50 nM) induced intracellular [Ca2+] increase in PLC-PRF cells. It is filed as functional, cell-based. As to conditions: Homo sapiens.
The target of experiment [2] is T1, Type-1 angiotensin II receptor (Homo sapiens, UniProt P30556).
T1 sequence (P30556 whole entry): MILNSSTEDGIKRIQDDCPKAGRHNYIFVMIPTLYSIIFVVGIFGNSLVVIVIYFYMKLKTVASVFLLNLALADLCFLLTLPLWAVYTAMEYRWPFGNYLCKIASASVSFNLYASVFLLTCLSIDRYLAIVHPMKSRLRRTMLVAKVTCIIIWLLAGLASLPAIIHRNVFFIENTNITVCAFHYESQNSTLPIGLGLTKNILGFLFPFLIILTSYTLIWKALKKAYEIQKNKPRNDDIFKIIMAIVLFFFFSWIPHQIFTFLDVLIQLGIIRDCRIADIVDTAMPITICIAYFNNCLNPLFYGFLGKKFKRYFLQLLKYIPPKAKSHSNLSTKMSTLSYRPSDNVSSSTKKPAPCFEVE
The experiment in a line: In vitro binding affinity towards Angiotensin II receptor, type 1 of human hepatoma cell line PLC-PRF-5.

On to `CCCCN1C(=O)C2(CCCC2)CC(=O)N1Cc1ccc(-c2ccccc2-c2nnn[nH]2)cc1`, for which 102 nM corresponded to half-maximal inhibition in experiment [1] (IC50). Further, the affinity in experiment [2] corresponds to a Ki of 80 nM.
`CCCCN1C(=O)C2(CCCC2)C(=O)N1Cc1ccc(-c2ccccc2-c2nn[nH]n2)cc1`: in experiment [1], half-maximal inhibition (IC50) required 28 nM.
In the case of `CCCCN1C(=O)CC2(CCCC2)C(=O)N1Cc1ccc(-c2ccccc2-c2nn[nH]n2)cc1`, the concentration for half-maximal inhibition (IC50) in experiment [1] is 9 nM. The same compound came in with a Ki in experiment [2] of 14 nM.
In experiment [1], `CCCCC1=NC2(CCCC2)C(=O)N1Cc1ccc(-c2ccccc2-c2nnn[nH]2)cc1` [IRBESARTAN] had an IC50 of 4 nM. This lies in the single-digit nanomolar range.

What is called IC50 is the concentration at which inhibition is half-maximal. For orientation: Ki means a dissociation constant, usually derived from enzyme kinetics or from competition with a known ligand.
